According to DBAASP:
≈ marks a conversion by molar mass, not a printed value.

Columns and labels:
Experiment in all cases: ≥ marks a high value that may be exact or a test limit, other limits are often not marked, values filed in µg/mL are converted to µM
[1] = tested on: Acinetobacter johnsonii NCDC 0072
[2] = tested on: Bacillus cereus NCDC 0240
[3] = tested on: Escherichia coli MTCC 0723
[4] = tested on: Listeria monocytogenes ATCC 19111
[5] = tested on: Pseudomonas aeruginosa ATCC 27853
[6] = tested on: Pseudomonas aeruginosa NCDC 0105
[7] = tested on: Salmonella enterica subsp. enterica serovar Typhimurium ATCC 14028
[8] = tested on: Staphylococcus aureus ATCC 29213
[9] = tested on: Staphylococcus aureus NCDC 0111
[10] = tested on: Bacillus subtilis ATCC 6633
[11] = tested on: Klebsiella pneumoniae ATCC 27736
[12] = tested on: Pseudomonas aeruginosa ATCC BAA-427
[13] = tested on: Aspergillus flavus IFFI 4015
[14] = tested on: Bacillus megaterium
[15] = tested on: Candida albicans ATCC 2002
[16] = tested on: Klebsiella pneumoniae
[17] = tested on: Penicillium urticae IFFI 2001
[18] = tested on: Pseudomonas aeruginosa CMCCB 10104
[19] = tested on: Shigella dysenteriae
[20] = tested on: Staphylococcus aureus ATCC 2592
[21] = tested on: Escherichia coli AB94012
[22] = tested on: Escherichia coli ATCC 25922
[23] = tested on: Pseudomonas aeruginosa AB93066
[24] = tested on: Pseudomonas aeruginosa ATCC 9027
[25] = tested on: Staphylococcus aureus AB94004
[26] = tested on: Staphylococcus aureus ATCC 25923
[27] = tested on: Staphylococcus aureus ATCC 6538
[28] = tested on: Staphylococcus aureus P1374
[29] = tested on: Staphylococcus aureus P1381

`CC[C@H](C)[C@H](NC(=O)[C@H](Cc1c[nH]c2ccccc12)NC(=O)[C@@H](NC(=O)[C@H](Cc1c[nH]c2ccccc12)NC(=O)[C@@H]1CCCN1C(=O)[C@@H](NC(=O)[C@H](C)N)[C@@H](C)CC)[C@@H](C)CC)C(=O)N[C@@H](Cc1c[nH]c2ccccc12)C(=O)N[C@@H](Cc1c[nH]c2ccccc12)C(=O)N[C@@H](CC(C)C)C(=O)N[C@@H](CC(C)C)C(=O)N[C@@H](CCCN=C(N)N)C(=O)N[C@@H](CCCCN)C(=O)NCC(=O)O` [AIPWIWIWWLLRKG] gave an MIC [1] of 1.5 µM (≈ 2.76 µg/mL), an MIC [2] of 0.8 µM (≈ 1.47 µg/mL) and an MIC [3] of 6 µM (≈ 11 µg/mL). It also gave an MIC [4] of 6 µM (≈ 11 µg/mL), an MIC [5] of 6 µM (≈ 11 µg/mL) and an MIC [6] of 6 µM (≈ 11 µg/mL). It also gave an MIC [7] of 1.5 µM (≈ 2.76 µg/mL), an MIC [8] of 6 µM (≈ 11 µg/mL) and an MIC [9] of 0.4 µM (≈ 0.735 µg/mL).

Compound `CC[C@H](C)[C@H](NC(=O)CNC(=O)[C@H](CCCN=C(N)N)NC(=O)[C@H](Cc1ccccc1)NC(=O)[C@@H](NC(=O)[C@H](Cc1cnc[nH]1)NC(=O)[C@H](Cc1cnc[nH]1)NC(=O)[C@H](Cc1ccccc1)NC(=O)[C@@H](N)Cc1ccccc1)[C@@H](C)CC)C(=O)N[C@H](C(=O)N[C@@H](Cc1cnc[nH]1)C(=O)N[C@H](C(=O)NCC(=O)N[C@@H](CCCCN)C(=O)N[C@H](C(=O)N[C@H](C(=O)N[C@@H](Cc1cnc[nH]1)C(=O)N[C@@H](CCCN=C(N)N)C(=O)N[C@@H](CC(C)C)C(=O)N[C@H](C(=O)N[C@H](C(=O)NCC(N)=O)[C@@H](C)O)C(C)C)C(C)C)[C@@H](C)O)C(C)C)C(C)C` [FFHHIFRGIVHVGKTVHRLVTG] has an MIC [10] of 8 µM (≈ 20.5 µg/mL), an MIC [11] of 6 µM (≈ 15.3 µg/mL) and an MIC [12] of 12 µM (≈ 30.7 µg/mL).

`CC[C@H](C)[C@H](NC(=O)[C@H](CCCCN)NC(=O)[C@H](C)NC(=O)CNC(=O)[C@@H](NC(=O)[C@@H](N)CO)[C@@H](C)CC)C(=O)N[C@@H](CC(C)C)C(=O)NCC(=O)NCC(=O)N[C@H](C(=O)N[C@@H](CCCCN)C(=O)N[C@H](C(=O)N[C@@H](Cc1ccccc1)C(=O)N[C@@H](Cc1ccccc1)C(=O)N[C@@H](CCCCN)C(=O)NCC(=O)N[C@@H](C)C(=O)N[C@@H](CC(C)C)C(=O)N[C@@H](CCCCN)C(=O)N[C@@H](CCC(=O)O)C(=O)N[C@@H](CC(C)C)C(=O)N[C@@H](C)C(=O)N[C@@H](CO)C(=O)N[C@H](C(=O)N[C@@H](Cc1ccc(O)cc1)C(=O)N[C@@H](CC(C)C)C(=O)N[C@@H](CCC(N)=O)C(=O)O)[C@@H](C)O)[C@@H](C)O)C(C)C` [SIGAKILGGVKTFFKGALKELASTYLQ] showed an MIC [13] of 4.22 µM (≈ 12 µg/mL), an MIC [14] of 4.22 µM (≈ 12 µg/mL) and an MIC [15] of 0.422 µM (≈ 1.2 µg/mL). The MIC [16] was 1.27 µM (≈ 3.6 µg/mL), the MIC [17] was 4.22 µM (≈ 12 µg/mL) and the MIC [18] was 2.53 µM (≈ 7.2 µg/mL). It also gave an MIC [19] of 4.22 µM (≈ 12 µg/mL) and an MIC [20] of 1.27 µM (≈ 3.6 µg/mL).

`CC[C@H](C)[C@H](NC(=O)[C@H](CO)NC(=O)[C@H](CCCCN)NC(=O)[C@@H](NC(=O)CNC(=O)[C@H](CCCCN)NC(=O)[C@H](Cc1c[nH]c2ccccc12)NC(=O)[C@H](CC(C)C)NC(=O)[C@H](CCCCN)NC(=O)CNC(=O)[C@H](CC(C)C)NC(=O)[C@@H](NC(=O)[C@@H](N)CO)[C@@H](C)CC)C(C)C)C(=O)N[C@@H](Cc1ccccc1)C(N)=O` [SILGKLWKGVKSIF] gave an MIC [21] of 15.9 µM (≈ 25 µg/mL), an MIC [22] of 31.7 µM (≈ 50 µg/mL) and an MIC [23] of 31.7 µM (≈ 50 µg/mL). The MIC [24] was 15.9 µM (≈ 25 µg/mL), the MIC [25] was 3.97 µM (≈ 6.25 µg/mL) and the MIC [26] was 3.97 µM (≈ 6.25 µg/mL). It also gave an MIC [27] of 3.97 µM (≈ 6.25 µg/mL), an MIC [28] of 3.97 µM (≈ 6.25 µg/mL) and an MIC [29] of 7.93 µM (≈ 12.5 µg/mL).
